{"source": "patent US20110224311A1", "about": "“Natural Product Sweetness Enhancers” (priority 2009, published 2011)", "key": {"[1]": {"test_system": "trained judges (expert taste panel)", "assay": "Double-blind sequential monadic sweetness intensity test, sip and spit (Example 1 protocol)", "assay_type": "in vivo, human", "source_text": "Subjects were given three samples to evaluate. Each subject was directed to swirl the first sample in his or her mouth for 3-5 seconds, expectorate the entire sample into a discard cup, and then assess the sweetness intensity of the sample. The intensity was rated on a score card by marking a numerical value along a scale from 0 to 8 (e.g., 0=none, 2=slight, 4=definite, 8=very strong). Following the decision regarding the sweetness intensity, subjects were instructed to rinse their mouth with water and spit in the discard cup. Subjects then were given unsalted crackers to cleanse the palate. A period of 10 minutes elapsed between presentations of each sample to reduce the potential influence of residual taste effects. A second sample was then presented and evaluated as above and the same procedure was followed until all three products were evaluated. Sample presentation was randomized to avoid order of presentation bias. To participate in the sensory panel, judges or subjects were chosen from an expert taste panel. These subjects were screened for taste acuity and were trained in evaluating solutions using the sip and spit protocol and were trained in using a rating ballot. The number of judges who participated in the study was 20. The female subjects were all non-pregnant and all volunteers were of <55 years of age with no history of allergy to sucrose. Judges were asked to execute an informed consent form. Specifically, the following instructions were given to the judges: Please take a sip of water. Carefully take the cap off the sample cup placed in front of you. Sip, swirl for 3-5 seconds, and then spit the sample into the cup provided, then assess the intensity of the sweetness of the sample. Please evaluate the sample for the intensity of the sweet flavor and put a vertical mark on the number that best describes the intensity. Rinse your mouth with the water provided and spit into the discard cup. Use crackers provided to cleanse your palate before evaluating the next sample. If any other flavor was present in the sample please describe it. Please rinse your mouth again several times and have some more water and unsalted crackers. You will now have a rest period of 10 minutes before you will be given the next sample."}, "[2]": {"test_system": "trained judges (expert taste panel)", "assay": "Double-blind sequential monadic sweetness intensity test, taste and swallow (Example 6 protocol), beverages and solutions", "assay_type": "in vivo, human", "settings": "for intrinsic sweetness in unsweetened beverage: Reb C at 190 ppm or below (95, 190, 285 ppm tested)"}, "[3]": {"test_system": "test group having five (5) subjects", "assay": "Forced-choice taste test of Reb C water solution against water", "assay_type": "in vivo, human", "settings": "250 μM Reb C water solution", "protocol": "The taste of a 250 μM Reb C solution was evaluated by a test group having five (5) subjects as follows (Forced-choice): Subjects were presented with 2 cups, each containing 10 ml of either 250 μM Reb C water solution or water (room temperature). […] Subjects were asked to sip most or all of the 10 ml from the first cup, swish the liquid in their oral cavity, and expectorate into a cup, then rinse their mouths vigorously with water. Soon thereafter, the contents of the second cup were sampled in the same manner. Then, subjects were asked to choose the sweeter of the two samples, or if not sweet, to describe the qualitative taste profile of the sample having a detectable taste."}, "[4]": {"test_system": "test group having four (4) subjects", "assay": "Open qualitative taste report of Reb C water solutions", "assay_type": "in vivo, human", "settings": "250 and 300 μM Reb C in water, subjects 1 to 4", "protocol": "The taste of 250 μM and 300 μM Reb C solutions were evaluated as follows by another test group having four (4) subjects as follows: 10 ml solutions of 250 and 300 μM Reb C in water were sampled by four subjects who were asked to report their qualitative taste experience of the solutions. […] The subjects have the following qualitative taste descriptions: […]"}, "10 panelists": {"test_system": "10 panelists", "assay": "Quantitative taste profile by trained panelists (Example 11)", "assay_type": "in vivo, human", "protocol": "The taste of 150, 300, and 600 μM Reb C was evaluated by a test group. 10 panelists were trained over a period of a few weeks to provide a quantitative flavor profile of Reb C. Panelists first were trained using standard tastants representing the different taste modalities given in FIG. 10 (i.e., sweet, bitter, salt, sour, and licorice). They then were trained to use the scales when flavors were mixed together. All intensity ratings are on scales ranging from 0 (no taste) to 8 (highest intensity). The intensity rating for sweet is essentially the same as used in Examples 1 and 6. The taste profiles were obtained for 150, 300, and 600 μM Reb C. Reb A (0.2 mg/ml, a concentration used in some food/beverage applications for sweetening) was also evaluated in the test for comparison. The scale is not linear at the bottom. A rating of 1 is around the threshold for sweetness detection."}, "[5]": {"settings": "cited from earlier work"}, "[6]": {"settings": "cited from earlier work", "remark": "listed apart in the source"}, "[7]": {"settings": "5% (w/v-%) fructose solution + 300 μM enhancer, versus 7% (w/v-%) fructose"}, "[8]": {"settings": "5% (w/v-%) sucrose solution + 300 μM enhancer, versus 7% (w/v-%) sucrose, scale 0 to 8"}, "[9]": {"settings": "8% (w/v-%) sucrose solution + 300 μM enhancer, versus 11% (w/v-%) sucrose"}}, "note": "“And” between values parts separate entries of the source, which are not always exact repeats. Equal entries are not always repeated. “Also recorded” adds a separate entry of the source. Where two headings read alike, the source gives them in different places.", "data": [{"smiles": "OC[C@H]1O[C@@](CO)(O[C@H]2O[C@H](CO)[C@@H](O)[C@H](O)[C@H]2O)[C@@H](O)[C@@H]1O", "note": "[sucrose, α-D-glucopyranosyl-(1→2)-β-D-fructofuranose, reference compound]", "values": [{"measurement": "mean sweetness intensity score", "setting": "[1]; 8% (w/v-%) sucrose solution alone (low-concentration comparator), scale 0 to 8", "result": "5.30 and 5.0"}, {"measurement": "mean sweetness intensity score", "setting": "[1]; 11% (w/v-%) sucrose solution alone (high-concentration comparator), scale 0 to 8", "result": "6.95 and 6.7"}]}, {"smiles": "C=C1CC23CCC4C(C)(C(=O)OC5OC(CO)C(O)C(O)C5O)CCCC4(C)C2CCC1(OC1OC(CO)C(O)C(OC2OC(CO)C(O)C(O)C2O)C1OC1OC(C)C(O)C(O)C1O)C3", "note": "(stereo not drawn) [Reb C, rebaudioside C]", "values": [{"measurement": "sweetness of sweetener solution with enhancer compared with higher sweetener concentration", "setting": "[2]; 7.14% w/v erythritol water solution + 285 ppm (300 μM) Reb C, versus 7.14% and 10% erythritol", "result": "significantly sweeter than the 7.14% erythritol solution alone, but did not achieve the sweetness of a 10% erythritol solution; also recorded: acts synergistically"}, {"measurement": "statistical significance of the sweetness enhancing effect", "setting": "[2]; 8% (w/v-%) fructose solution + 300 μM Reb C", "result": "not statistically significant"}, {"measurement": "sweetness of sweetener solution with enhancer compared with higher sweetener concentration", "setting": "[2]; 8% (w/v-%) fructose solution + 300 μM Reb C, versus 8% and 11% fructose", "result": "between that of the 8% (w/v-%) fructose solution and that of an 11% (w/v-%) fructose solution"}, {"measurement": "sweetness of beverage with enhancer compared with higher sweetener concentration", "setting": "[2]; cola beverage buffered with citric acid, 10.39% (w/v-%) HFCS55 + 190 ppm Reb C, versus 14.29% HFCS55", "result": "significantly increases the sweetness intensity to that of 14.29% HFCS55; also recorded: synergistically enhanced"}, {"measurement": "sweetness of beverage with enhancer compared with beverage alone", "setting": "[2]; cola beverage buffered with phosphoric acid, 10.39% (w/v-%) HFCS55 + 190 ppm Reb C", "result": "is not higher than that of 10.39% (w/v-%) HFCS55 cola beverage alone"}, {"measurement": "sweetness of beverage with enhancer compared with higher sweetener concentration", "setting": "[2]; cola beverage buffered with phosphoric acid, 10.39% (w/v-%) HFCS55 + 310 ppm Reb C, versus 14.29% HFCS55", "result": "increased significantly the sweetness intensity of a cola beverage containing 10.39% (w/v-%) HFCS55, but did not reach the sweetness of a 14.29% (w/v-%) HFCS55 cola beverage; also recorded: enhances the sweetness intensity"}, {"measurement": "sweetness of beverage with enhancer compared with higher sweetener concentration", "setting": "[2]; iced tea, 8% (w/v-%) sucrose + 300 μM Reb C, versus 8% and 11% sucrose", "result": "between that of the 8% (w/v-%) solution and that of an 11% (w/v-%) sucrose solution; also recorded: enhances the sweetness intensity"}, {"measurement": "sweetness of beverage with enhancer compared with higher sweetener concentration", "setting": "[2]; iced tea, 10.39% (w/v-%) HFCS55 + 300 μM Reb C, versus 14.29% HFCS55", "result": "indistinguishable from that of a 14.29% (w/v-%) HFCS55 (HFCS) solution; also recorded: acts synergistically"}, {"measurement": "sweetness of beverage with enhancer compared with higher sweetener concentration", "setting": "[2]; lemon-lime soda (citric acid), 10.39% (w/v-%) HFCS55 + 190 ppm Reb C, versus 14.29% HFCS55", "result": "did not reach the sweetness of a 14.29% (w/v-%) HFCS55 solution; also recorded: synergistically enhanced"}, {"measurement": "intrinsic sweetness in unsweetened beverage", "setting": "[2]; unsweetened cola beverage", "result": "does not increase the sweetness of an unsweetened cola beverage"}, {"measurement": "intrinsic sweetness in unsweetened beverage", "setting": "[2]; unsweetened lemon-lime soda (FIG. 16)", "result": "does not increase the sweetness of an unsweetened cola beverage"}, {"measurement": "identification of the sample against water (forced-choice)", "setting": "[3]; 10 ml, room temperature, five subjects", "result": "All subjects correctly identified the sample containing Reb C"}, {"measurement": "qualitative taste description (one per subject)", "setting": "[3]; subjects 1 to 5", "result": "Metallic, not sweet; also recorded: Aversive (“Nasty”); also recorded: Slight sweet, astringent; also recorded: Faintly sweet; also recorded: Slight sweet/licorice"}, {"measurement": "qualitative taste description (one per subject)", "setting": "[4]", "result": "bitter and/or licorice"}, {"measurement": "unpleasant tastes, bitter and licorice", "setting": "10 panelists; 150, 300 and 600 μM Reb C alone", "result": "barely detected"}, {"measurement": "intrinsic sweetness", "setting": "10 panelists; 150, 300 and 600 μM Reb C, scale 0 to 8", "result": "little or no intrinsic sweetness"}, {"measurement": "unpleasant tastes, bitter and licorice", "setting": "10 panelists; Reb C combined with sugar", "result": "undetected"}, {"measurement": "sweetness of sweetener solution with enhancer compared with higher sweetener concentration", "setting": "[1]; [7]", "result": "close to that of a 7% (w/v-%) fructose solution; also recorded: acts synergistically"}, {"measurement": "sweetness of sweetener solution with enhancer compared with higher sweetener concentration", "setting": "[1]; [8]", "result": "indistinguishable from that of a 7% (w/v-%) sucrose solution; also recorded: acts synergistically"}, {"measurement": "sweetness of sweetener solution with enhancer compared with higher sweetener concentration", "setting": "[1]; 8% (w/v-%) sucrose solution + 150 μM Reb C, versus 8% and 11% (w/v-%) sucrose", "result": "between that of the 8% (w/v-%) sucrose solution and that of an 11% (w/v-%) sucrose solution; also recorded: significantly enhanced"}, {"measurement": "sweetness of sweetener solution with enhancer compared with higher sweetener concentration", "setting": "[1]; [9]", "result": "close to that of an 11% (w/v-%) sucrose solution; also recorded: significantly enhanced"}, {"measurement": "mean sweetness intensity score", "setting": "[1]; 8% (w/v-%) sucrose solution with 150 μM Reb C, scale 0 to 8", "result": 6.10}]}, {"smiles": "C=C1C[C@@]23CC[C@H]4[C@@](C)(CCC[C@@]4(C)C(=O)O[C@@H]4O[C@H](CO)[C@@H](O)[C@H](O)[C@H]4O)[C@@H]2CC[C@]1(O[C@@H]1O[C@H](CO)[C@@H](O)[C@H](O)[C@H]1O[C@@H]1O[C@@H](C)[C@H](O)[C@@H](O)[C@H]1O)C3", "note": "[Dulc A, dulcoside A]", "values": [{"measurement": "sweetness relative to sucrose", "setting": "[5]; known values, background", "result": "30 times sweeter than sucrose"}, {"measurement": "sweetness of sweetener solution with enhancer compared with higher sweetener concentration", "setting": "[1]; [7]", "result": "achieved that of a 7% (w/v-%) fructose solution; also recorded: acts synergistically"}, {"measurement": "sweetness of sweetener solution with enhancer compared with higher sweetener concentration", "setting": "[1]; [8]", "result": "achieved that of a 7% (w/v-%) sucrose solution; also recorded: acts synergistically"}, {"measurement": "sweetness of sweetener solution with enhancer compared with higher sweetener concentration", "setting": "[1]; [9]", "result": "approached that of an 11% (w/v-%) sucrose solution; also recorded: acts synergistically"}, {"measurement": "off-tastes", "setting": "[1]; 8% (w/v-%) sucrose solution with 300 μM Dulc A", "result": "No off-tastes were detected"}, {"measurement": "mean sweetness intensity score", "setting": "[1]; 8% (w/v-%) sucrose solution with 300 μM Dulc A, scale 0 to 8", "result": 6.3}]}, {"smiles": "C=C1C[C@@]23CC[C@H]4[C@@](C)(CCC[C@@]4(C)C(=O)O[C@@H]4O[C@H](CO)[C@@H](O)[C@H](O)[C@H]4O)[C@@H]2CC[C@]1(O[C@@H]1O[C@H](CO)[C@@H](O)[C@H](O[C@@H]2O[C@H](CO)[C@@H](O)[C@H](O)[C@H]2O)[C@H]1O[C@@H]1O[C@H](CO)[C@@H](O)[C@H](O)[C@H]1O)C3", "note": "[rebaudioside A]", "values": [{"measurement": "effect in mixtures with other sweeteners", "setting": "[6]; mixture with sucrose, sweetness intensity equivalent to 7% (w/v-%) sucrose", "result": "additive effect"}, {"measurement": "effect in mixtures with other sweeteners", "setting": "[6]; mixtures with fructose and glucose, sweetness intensity equivalent to 3% (w/v-%) sucrose", "result": "additive effect"}, {"measurement": "effect in mixtures with other sweeteners", "setting": "[6]; mixtures with fructose, glucose and sucrose, sweetness intensity equivalent to 5% (w/v-%) sucrose", "result": "additive effect"}, {"measurement": "effect in mixtures with other sweeteners", "setting": "[6]; mixtures with glucose and fructose, sweetness intensity equivalent to 7% (w/v-%) sucrose", "result": "suppressive effect"}, {"measurement": "effect in mixtures with other sweeteners", "setting": "[6]; mixtures with sucrose, sweetness intensity equivalent to 3% (w/v-%) sucrose", "result": "synergistic effect"}, {"measurement": "aftertaste among the diterpene glycosides of Stevia extracts", "setting": "[5]; bitter and licorice-like aftertaste", "result": "least aftertaste"}]}]}
